Several values for one entry are separate records, joined by “and”; a condition that tells them apart may be missing. Equal entries are not always repeated.
How the values were obtained:
[1] = tested on: streptozotocin-induced diabetic mice; assay: Von Frey test: evaluating mechanical stimulus; format: in vivo, C57BL/6J male mice
Experimental: (§1) 9-week-old C57BL/6J male mice were purchased and familiarized with an animal facility for 1 week. 200 mg/kg of streptozotocin (streptozotocin; STZ) was administered […] into the peritoneal cavity of 10-week-old mice to prepare streptozotocin-induced diabetic mice (hereinafter also referred to as “STZ administration week 0”). One week after the administration of streptozotocin, blood was collected from the tail vein of the mice, and the blood glucose level (BS) was measured using an automatic blood glucose measuring device (product name: Medisafe (trademark) Mini GR-102, made by Terumo (Co)). Mice having a blood glucose level of 400 mg/dL or more were determined to be diabetic mice.
(§2) The SMTP-44D groups, the edaravone group, and the pregabalin group were administered SMTP-44D (0.3 mg/kg, 3 mg/kg, or 30 mg/kg doses, respectively), edaravone (10 mg/kg dose), or pregabalin (10 mg/kg dose) into the peritoneal cavity once a day for 3 consecutive weeks from the day following the first week to the fourth week after STZ administration.
The above-mentioned STZ group, SMTP-44D groups, edaravone group, pregabalin group, and control group mice were put in grid-like boxes, respectively, and were familiarized for one hour. After the familiarization, by using a Dynamic Plantar Aesthesiometer (tactometer) (manufactured by UGO BASILE Inc.), 1 g/s (that, pressurization increased by 1 g per second) of stimulation was imparted to the hind legs of these mice to measure mechanical thresholds (g) from the start of stimulation to the time when the mice withdrew their legs. The measurements were conducted for both hind legs three times at intervals of three minutes or longer, respectively. A mean value of three mechanical thresholds (g) was calculated for 1 mouse, and then a mean value of the 12 mice for the respective groups was found.

[2] = tested on: IL-6; assay: Inflammatory cytokine IL-6 in sciatic nerve (ELISA); format: in vivo, C57BL/6J male mice; settings: 4th week
Experimental: as §1, §2
(§3) The sciatic nerves of the above-mentioned STZ group, SMTP-44D group (30 mg/kg), edaravone group, pregabalin group, and control group mice on the 4th week were homogenized using the RIPA buffer containing a protease inhibitor cocktail. Moreover, centrifugation was conducted at 4° C. for 15 minutes at 10,000 g, and the supernatant was collected and used for measuring TNF-α concentration (pg/mL), IL-1β concentration (pg/mL), IL-6 concentration (pg/mL), and total protein concentration (μg/mL), respectively. An ELISA assay kit was used for the TNF-α, IL-1β, and IL-6 concentrations. The total protein concentration was measured by using a Pierce (trademark) BCA Protein Assay Kit. The inflammatory cytokine level (pg/mg protein) in the total protein was calculated from the TNF-α concentration (pg/mL), IL-1β concentration (pg/mL), and IL-6 concentration (pg/mL), and total protein concentration (μg/mL).

[3] = tested on: streptozotocin-induced diabetic mice; assay: Hind plantar blood flow (laser perfusion imager); format: in vivo, C57BL/6J male mice
Experimental: as §1, §2
The hind plantar blood flows (perfusion unit: PU) of the above-mentioned STZ group, SMTP-44D groups, edaravone group, pregabalin group, and control group mice were measured under isoflurane anesthesia using a full-field laser perfusion imager.

[4] = tested on: streptozotocin-induced diabetic mice; assay: Blood glucose level (BS) in streptozotocin-induced diabetic mice; format: in vivo, C57BL/6J male mice
Experimental: as §1, §2
(§4) For the above-mentioned STZ group, SMTP-44D groups, edaravone group, pregabalin group, and control group mice, the following measurements were conducted every week from the 0th week, which began on the day when streptozotocin (STZ) was administered, to the 4th week (that is, a total of five times). As algesia tests, the following von Frey test and hot plate test were conducted, and hind plantar blood flow, body weight (BW), and blood glucose level (BS) were measured using the above-mentioned automatic blood glucose measure device. Note, for example, the 0th week represents the 0th day. That is, the measurements were conducted on the 0th, 7th, 14th, 21st, and 28th days.

[5] = Body weight (BW) in streptozotocin-induced diabetic mice; format: in vivo, C57BL/6J male mice
Experimental: as §1, §2, §4

[6] = tested on: IL-1β; assay: Inflammatory cytokine IL-1β in sciatic nerve (ELISA); format: in vivo, C57BL/6J male mice; settings: 4th week
Experimental: as §1, §2, §3

[7] = tested on: diabetic nephropathy model mice; assay: Urinary albumin; settings: 30 mg/kg i.p. once every two days for 10 weeks; 16 weeks old
[8] = tested on: diabetic nephropathy model mice; assay: Blood glucose level in diabetic nephropathy model mice; format: in vivo, Male db/db mice; settings: 30 mg/kg i.p. once every two days for 10 weeks; 16 weeks old
[9] = tested on: diabetic nephropathy model mice; assay: Urine volume (24 h, metabolic cage); format: in vivo, Male db/db mice; settings: 30 mg/kg i.p. once every two days for 10 weeks; 16 weeks old; 24 h urine
[10] = Body weight in diabetic nephropathy model mice; format: in vivo, Male db/db mice; settings: 30 mg/kg i.p. once every two days for 10 weeks; 16 weeks old
[11] = tested on: diabetic nephropathy model mice; assay: Serum creatinine; settings: 30 mg/kg i.p. once every two days for 10 weeks; 16 weeks old
[12] = 10 mg/kg i.p. once a day, 0th week (before dosing)
[13] = 10 mg/kg i.p. once a day, 0th week (before dosing), listed as edaravone
[14] = 10 mg/kg i.p. once a day, 1st week (before dosing)
[15] = 10 mg/kg i.p. once a day, 1st week (before dosing), listed as edaravone
[16] = 10 mg/kg i.p. once a day, 2nd week
[17] = 10 mg/kg i.p. once a day, 2nd week, listed as edaravone
[18] = 10 mg/kg i.p. once a day, 3rd week
[19] = 10 mg/kg i.p. once a day, 3rd week, listed as edaravone
[20] = 10 mg/kg i.p. once a day, 4th week
[21] = 10 mg/kg i.p. once a day, 4th week, listed as edaravone
[22] = 10 mg/kg i.p. once a day, listed as edaravone
[23] = 0.3 mg/kg i.p. once a day, 0th week (before dosing)
[24] = 0.3 mg/kg i.p. once a day, 1st week (before dosing)
[25] = 0.3 mg/kg i.p. once a day, 2nd week
[26] = 0.3 mg/kg i.p. once a day, 3rd week
[27] = 0.3 mg/kg i.p. once a day, 4th week
[28] = 3 mg/kg i.p. once a day, 0th week (before dosing)
[29] = 3 mg/kg i.p. once a day, 1st week (before dosing)
[30] = 3 mg/kg i.p. once a day, 2nd week
[31] = 3 mg/kg i.p. once a day, 3rd week
[32] = 3 mg/kg i.p. once a day, 4th week
[33] = 30 mg/kg i.p. once a day, 0th week (before dosing)
[34] = 30 mg/kg i.p. once a day, 1st week (before dosing)
[35] = 30 mg/kg i.p. once a day, 2nd week
[36] = 30 mg/kg i.p. once a day, 3rd week
[37] = 30 mg/kg i.p. once a day, 4th week

## CC1=NN(c2ccccc2)C(=O)C1 [Edaravone, edaravone]
[1]; [12]
  von Frey test mechanical threshold: 5.1 ± 0.1 g
[1]; [13]
  von Frey test mechanical threshold: 5.1 ± 0.1 g
[1]; [14]
  von Frey test mechanical threshold: 4.1 ± 0.1 g
[1]; [15]
  von Frey test mechanical threshold: 4.1 ± 0.1 g
[1]; [16]
  von Frey test mechanical threshold: 4.6 ± 0.2 g
[1]; [17]
  von Frey test mechanical threshold: 4.6 ± 0.2 g
[1]; [18]
  von Frey test mechanical threshold: 4.8 ± 0.1 g
[1]; [19]
  von Frey test mechanical threshold: 4.8 ± 0.1 g
[1]; [20]
  von Frey test mechanical threshold: 5.1 ± 0.2 g
[1]; [21]
  von Frey test mechanical threshold: 5.1 ± 0.2 g
[2]; 10 mg/kg i.p. once a day
  IL-6: 165.83 ± 10.21 pg/mg protein
[2]; [22]
  IL-6: 165.83±10.21 pg/mg protein
[3]; [12]
  Hind plantar blood flow: 227.2 ± 12.5 PU
[3]; [13]
  Hind plantar blood flow: 227.2±12.5 PU
[3]; [14]
  Hind plantar blood flow: 149.7 ± 11.5 PU
[3]; [15]
  Hind plantar blood flow: 149.7±11.5 PU
[3]; [17]
  Hind plantar blood flow: 161.4±9.1 PU
[3]; [18]
  Hind plantar blood flow: 166.6 ± 7.5 PU
[3]; [19]
  Hind plantar blood flow: 166.6±7.5 PU
[3]; [20]
  Hind plantar blood flow: 178.2 ± 9.9 PU
[3]; [21]
  Hind plantar blood flow: 178.2±9.9 PU
[4]; [13]
  BS (blood glucose level): 221.0 ± 7.3 mg/dL
[4]; [14]
  BS (blood glucose level): 566.0 ± 32.6 mg/dL
[4]; [15]
  BS (blood glucose level): 566.0 ± 32.6 mg/dL
[4]; [16]
  BS (blood glucose level): 567.5 ± 28.0 mg/dL
[4]; [17]
  BS (blood glucose level): 567.5 ± 28.0 mg/dL
[4]; [18]
  BS (blood glucose level): 617.7 ± 373.3 mg/dL
[4]; [19]
  BS (blood glucose level): 617.7 ± 37.3 mg/dL
[4]; [20]
  BS (blood glucose level): 565.3 ± 35.1 mg/dL
[4]; [21]
  BS (blood glucose level): 565.3 ± 35.1 mg/dL
[5]; 10 mg/kg i.p. once a day
  Body weight decrease between the 0th week and 4th week: 2.4 g
[5]; [12]
  BW (body weight): 23.4 ± 0.3 g
[5]; [13]
  BW (body weight): 23.4 ± 0.3 g
[5]; [14]
  BW (body weight): 21.9 ± 0.4 g
[5]; [15]
  BW (body weight): 21.9 ± 0.4 g
[5]; [16]
  BW (body weight): 21.6 ± 0.4 g
[5]; [17]
  BW (body weight): 21.6 ± 0.4 g
[5]; [18]
  BW (body weight): 21.3 ± 0.5 g
[5]; [19]
  BW (body weight): 21.3 ± 0.5 g
[5]; [20]
  BW (body weight): 21.0 ± 0.5 g
[5]; [21]
  BW (body weight): 21.0 ± 0.5 g
[6]; 10 mg/kg i.p. once a day
  IL-1β: 24.54 ± 4.52 pg/mg protein
[6]; [22]
  IL-1β: 24.54±4.52 pg/mg protein

## CC(C)=CCCC(C)=CCCC1(C)Oc2c(c(O)cc3c2CN(C(C(=O)O)c2ccc(O)cc2)C3=O)CC1O (stereo not drawn) [SMTP-44D]
[7]
  Urinary albumin: 0.3 ± 0.1 mg/h/kg
[1]; [23]
  von Frey test mechanical threshold: 5.2 ± 0.1 g
[1]; [24]
  von Frey test mechanical threshold: 4.1 ± 0.1 g
[1]; [25]
  von Frey test mechanical threshold: 3.5 ± 0.2 g
[1]; [26]
  von Frey test mechanical threshold: 3.7 ± 0.1 g
[1]; [27]
  von Frey test mechanical threshold: 3.6 ± 0.2 g
[1]; [28]
  von Frey test mechanical threshold: 4.9 ± 0.2 g
[1]; [29]
  von Frey test mechanical threshold: 4.2 ± 0.1 g
[1]; [30]
  von Frey test mechanical threshold: 4.0±0.1 g and 4.0 ± 0.1 ##− g
[1]; [31]
  von Frey test mechanical threshold: 3.9 ± 0.2 g
[1]; [32]
  von Frey test mechanical threshold: 4.0 ± 0.1 g
[1]; [33]
  von Frey test mechanical threshold: 4.9 ± 0.1 g
[1]; [34]
  von Frey test mechanical threshold: 3.9 ± 0.2 g
[1]; [35]
  von Frey test mechanical threshold: 5.4 ± 0.1 g
[1]; [36]
  von Frey test mechanical threshold: 5.3 ± 0.1 g
[1]; [37]
  von Frey test mechanical threshold: 5.2 ± 0.1 g
[2]; 30 mg/kg i.p. once a day
  IL-6: 143.41±8.08 pg/mg protein
[3]; [23]
  Hind plantar blood flow: 199.8±9.8 PU
[3]; [24]
  Hind plantar blood flow: 150.7±9.4 PU
[3]; [25]
  Hind plantar blood flow: 152.9±8.7 PU
[3]; [26]
  Hind plantar blood flow: 141.0±8.7 PU
[3]; [27]
  Hind plantar blood flow: 132.3±6.6 PU
[3]; [28]
  Hind plantar blood flow: 210.7±14.1 PU
[3]; [29]
  Hind plantar blood flow: 154.8±12.8 PU
[3]; [30]
  Hind plantar blood flow: 169.3±7.9 PU
[3]; [31]
  Hind plantar blood flow: 161.3±11.8 PU
[3]; [32]
  Hind plantar blood flow: 162.1±9.8 PU
[3]; [33]
  Hind plantar blood flow: 201.4±6.8 PU
[3]; [34]
  Hind plantar blood flow: 142.7±7.1 PU
[3]; [35]
  Hind plantar blood flow: 185.0±8.4 PU
[3]; [36]
  Hind plantar blood flow: 234.7±11.2 PU
[3]; [37]
  Hind plantar blood flow: 214.9±12.2 PU
[4]; [33]
  BS (blood glucose level): 203.5 ± 5.5 mg/dL
[4]; [34]
  BS (blood glucose level): 535.5 ± 28.7 mg/dL
[4]; [35]
  BS (blood glucose level): 597.3 ± 44.8 mg/dL
[4]; [36]
  BS (blood glucose level): 638.7 ± 34.2 mg/dL
[4]; [37]
  BS (blood glucose level): 580.3 ± 42.9 mg/dL
[5]; 30 mg/kg i.p. once a day
  Body weight decrease between the 0th week and 4th week: 1.5 g
[5]; [33]
  BW (body weight): 23.0 ± 0.4 g
[5]; [34]
  BW (body weight): 21.7 ± 0.5 g
[5]; [36]
  BW (body weight): 21.3 ± 0.6 g
[5]; [37]
  BW (body weight): 21.5 ± 0.5 g
[6]; 30 mg/kg i.p. once a day
  IL-1β: 24.90±4.05 pg/mg protein
[8]
  Blood glucose levels compared to the DN group: No significant changes
[9]
  Urine volume: 1268.3 ± 137.4 µL
[10]
  Body weight compared to the DN group: No significant changes
[11]
  Serum creatinine: 0.4 ± 0.1 mg/dL
